# Experimental data as given in article PMC5517026, “Crystal structure and functional characterization of an isoaspartyl dipeptidase (CpsIadA) from Colwellia psychrerythraea strain 34H” (PLoS ONE, 2017).
# Where a SMILES comes first, the peptide text is derived from it.
# How the values were obtained:
# [1] = molecular target: T1, CpsIadA (Colwellia psychrerythraea, UniProt Q484B6); assay: coupled spectrophotometric assay (aspartate aminotransferase/malate dehydrogenase, NADH at […] nm); type: biochemical; conditions: 100 mM HEPES pH 8.0, 100 mM KCl, 30°C
# T1 construct: gene iadA; Ni-NTA and gel filtration; homo-octamer (314 kDa by AUC), two Zn ions per active site
# T1 sequence (Q484B6 entry or part of it): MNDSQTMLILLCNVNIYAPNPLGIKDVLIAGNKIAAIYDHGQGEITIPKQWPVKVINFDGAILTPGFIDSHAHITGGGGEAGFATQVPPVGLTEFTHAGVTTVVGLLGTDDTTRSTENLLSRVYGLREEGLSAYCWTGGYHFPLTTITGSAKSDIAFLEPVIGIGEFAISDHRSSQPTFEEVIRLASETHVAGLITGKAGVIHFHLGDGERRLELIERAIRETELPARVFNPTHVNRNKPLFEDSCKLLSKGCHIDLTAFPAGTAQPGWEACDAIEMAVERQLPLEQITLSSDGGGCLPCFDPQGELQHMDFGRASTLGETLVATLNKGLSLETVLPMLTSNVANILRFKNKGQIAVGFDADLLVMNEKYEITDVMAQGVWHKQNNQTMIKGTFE
# [2] = molecular target: T1, CpsIadA; assay: coupled assay with L-alanine dehydrogenase/diaphorase, INT reduction at […] nm; type: biochemical; conditions: 100 mM HEPES pH 8.0, 1.5 mM INT, 1.5 mM NAD+, 30°C
# [3] = molecular target: T2, CpsIadA (Colwellia psychrerythraea, UniProt Q484B6, E80Q, form not given); assay: X-ray crystal structure of the complex ([…] Å); type: binding; conditions: active site, two Zn ions; 5 mM ligand added before crystallization; catalytically inactive mutant
# T2 construct: gene iadA; Ni-NTA and gel filtration; homo-octamer (314 kDa by AUC), two Zn ions per active site
# T2 sequence (Q484B6 entry or part of it E80Q, form open): as the sequence (Q484B6 entry or part of it) above, with E80Q counted along it
# [4] = molecular target: CpsIadA E80Q mutant (Colwellia psychrerythraea strain 34H) (UniProt Q484B6); assay: crystal structure; CpsIadA E80Q mutant with 5 mM β-aspartyl lysine, 2.33 Å, space group P4212, two monomers in the asymmetric unit; 0.1 M Bis-Tris propane pH 7.0, 1 M ammonium citrate tribasic pH 7.0, 293 K
# [5] = molecular target: isoaspartyl dipeptidase from Colwellia psychrerythraea strain 34H (CpsIadA), wild type (Colwellia psychrerythraea strain 34H) (UniProt Q484B6); assay: SEC; analytical size-exclusion chromatography; conditions not given; self-association (octamer)
# [6] = molecular target: isoaspartyl dipeptidase from Colwellia psychrerythraea strain 34H (CpsIadA), wild type (Colwellia psychrerythraea strain 34H) (UniProt Q484B6); assay: AUC; sedimentation velocity, 20°C, 0.5 mg/mL CpsIadA, 25 mM Tris-HCl pH 8.0, 200 mM NaCl, 5 mM MgCl2, 2 mM dithiothreitol, 45,000 rpm, SEDFIT; self-association (octamer)
# [7] = molecular target: isoaspartyl dipeptidase from Colwellia psychrerythraea strain 34H (CpsIadA), wild type (Colwellia psychrerythraea strain 34H) (UniProt Q484B6); assay: crystal structure; ligand-free wild type CpsIadA, 1.85 Å, space group P4212, two monomers in the asymmetric unit; 0.1 M Bis-Tris propane pH 7.0, 1.4 M sodium malonate, 293 K
Molecule,Km [1] [µM],also measured
CC(C)C[C@H](NC(=O)[C@@H](N)CC(=O)O)C(=O)O [α-Asp-Leu] (H-Asp-Leu-OH),6900 ± 400,–
C[C@H](NC(=O)CCN)C(=O)O [β-Ala-Ala],–,Km [2]: 930 ± 300 µM
C[C@H](NC(=O)C[C@H](N)C(=O)O)C(=O)O [β-Asp-Ala],1200 ± 300,–
N[C@@H](CC(=O)NCC(=O)O)C(=O)O [β-Asp-Gly],4700 ± 400,–
N[C@@H](CC(=O)N[C@@H](Cc1c[nH]cn1)C(=O)O)C(=O)O [β-Asp-His],5300 ± 500,–
CC(C)C[C@H](NC(=O)C[C@H](N)C(=O)O)C(=O)O [β-Asp-Leu],710 ± 80,–
NCCCC[C@H](NC(=O)C[C@H](N)C(=O)O)C(=O)O [β-Asp-Lys],1100 ± 90,X-ray crystal structure of the complex (2.33 Å) [3]: β-isoaspartyl lysine bound CpsIadA E80Q mutant have been deposited in the Protein Data Bank
N[C@@H](CC(=O)N[C@@H](Cc1ccccc1)C(=O)O)C(=O)O [β-Asp-Phe],490 ± 90,–
CpsIadA E80Q mutant (from UniProt Q484B6 1-395) (enzyme),–,stoichiometry N [4]: 8
"isoaspartyl dipeptidase from Colwellia psychrerythraea strain 34H (CpsIadA), wild type (from UniProt Q484B6 1-395) (enzyme)",–,stoichiometry N [5]: 8; stoichiometry N [6]: 8; stoichiometry N [7]: 8
